ChEMBL document CHEMBL2321872, “Synthesis and antimycobacterial activity of 2,1'-dihydropyridomycins” (ACS Med Chem Lett, 2013)

Target: Enoyl-[acyl-carrier-protein] reductase [NADH] (Mycobacterium tuberculosis, UniProt P9WGR1, S94A)

CC(C)[C@H]1OC(=O)[C@H](C)[C@H](O)[C@H](Cc2cccnc2)NC(=O)[C@@H](NC(=O)c2ncccc2O)[C@@H](C)OC1=O
Ki: 71 µM
